Values of other authors in patent publication US12576017B2, “Sunscreen composition with enhanced photoprotection” (Edgewell Personal Care Brands, LLC, priority 2021, dated 2026).

Conditions: lipid/water partition

Nc1ccc(C(=O)O)cc1 [PABA, p-Amino benzoic acid]
Log P @25° C.: 0.74

CC1CCC(C(C)C)C(OC(=O)c2ccccc2N)C1 (stereo not shown) [Menthyl anthranilate, Menthyl-O aminobenzoate]
Log P @25° C.: 5.05

COc1cc(O)c(C(=O)c2ccccc2)cc1S(=O)(=O)O [Benzophenone-4, 2-hydroxy-4-methoxybenzophenone-5-sulfonic acid]
Log P @25° C.: −1.51

COc1ccc(C(=O)c2ccccc2)c(O)c1 [Benzophenone-3, 2-hydroxy-4-methoxybenzophenone]
Log P @25° C.: 2.63

COc1ccc(C(=O)c2ccccc2O)c(O)c1 [Benzophenone-8, 2,2′-dihydroxy-4-methoxybenzophenone]
Log P @25° C.: 2.15

CCCCC(CC)COC(=O)c1ccc(N(C)C)cc1 (stereo not shown) [Octyl dimethyl PABA, 2-Ethylhexyl-p-dimethyl aminobenzoate]
Log P @25° C.: 6.08

CC1CC(OC(=O)c2ccccc2O)CC(C)(C)C1 (stereo not shown) [Homosalate, Homomenthyl salicylate]
Log P @25° C.: 5.61

CCOCCOC(=O)/C=C/c1ccc(OC)cc1 [Cinoxate, Ethoxyethyl methoxy cinnamate]
Log P @25° C.: 2.55

CCCCC(CC)COC(=O)c1ccccc1O (stereo not shown) [Octyl salicylate, 2-Ethylhexyl salicylate]
Log P @25° C.: 5.30

CCCCC(CC)COC(=O)C(C#N)=C(c1ccccc1)c1ccccc1 (stereo not shown) [Octocrylene, Octyl cyanodiphenylacrylate]
Log P @25° C.: 5.69

CCCCC(CC)COC(=O)C=Cc1ccc(OC)cc1 (stereo not shown) [Octyl methoxy cinnamate, Ethylhexyl-p-methoxy cinnamate]
Log P @25° C.: 5.65

CCOC(=O)c1ccc(N(CC(C)O)CC(C)O)cc1 (stereo not shown) [Ethyl dihydroxypropyl PABA, Ethyl-4-bis(2-hydroxypropyl-aminobenzoate)]
Log P @25° C.: 2.84

Nc1ccc(C(=O)OCC(O)CO)cc1 (stereo not shown) [Glyceryl PABA, 1,2,3-Propanetriol,1-(4-aminobenzoate)]
Log P @25° C.: −0.02
